In ChEMBL document CHEMBL4507304, “Data for DCP probe TP-021” (2021):

How the values were obtained:
[1] = biological target: Tyrosine-protein kinase ZAP-70 (Homo sapiens) (UniProt P43403); details: Compound concentration 1000.0 nM
[2] = biological target: Macrophage colony-stimulating factor 1 receptor (Homo sapiens) (UniProt P07333); details: Compound concentration 1000.0 nM
[3] = biological target: 1-phosphatidylinositol 3-phosphate 5-kinase (Homo sapiens) (UniProt Q9Y2I7); details: Compound concentration 1000.0 nM
[4] = biological target: Serine/threonine-protein kinase 17A (Homo sapiens) (UniProt Q9UEE5); details: Compound concentration 1000.0 nM
[5] = biological target: Casein kinase I isoform gamma-1 (Homo sapiens) (UniProt Q9HCP0); details: Compound concentration 1000.0 nM
[6] = biological target: Rho-associated protein kinase 1 (Homo sapiens) (UniProt Q13464); details: Compound concentration 1000.0 nM
[7] = biological target: Phosphatidylinositol 5-phosphate 4-kinase type-2 gamma (Homo sapiens) (UniProt Q8TBX8); details: Compound concentration 1000.0 nM
[8] = biological target: Cyclin-dependent kinase 4 (Homo sapiens) (UniProt P11802); details: Compound concentration 1000.0 nM
Cyclin-dependent kinase 4 (Homo sapiens), sequence (P11802 whole entry): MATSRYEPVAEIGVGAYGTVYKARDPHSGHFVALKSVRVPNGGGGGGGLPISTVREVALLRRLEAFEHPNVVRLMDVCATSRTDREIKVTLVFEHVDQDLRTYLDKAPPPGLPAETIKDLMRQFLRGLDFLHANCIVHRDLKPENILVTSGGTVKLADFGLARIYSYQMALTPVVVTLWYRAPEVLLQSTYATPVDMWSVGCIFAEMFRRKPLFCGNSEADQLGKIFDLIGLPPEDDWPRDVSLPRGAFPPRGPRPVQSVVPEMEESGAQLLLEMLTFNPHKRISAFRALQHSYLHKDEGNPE

[9] = biological target: Cyclin-dependent kinase 18 (Homo sapiens) (UniProt Q07002); details: Compound concentration 1000.0 nM
[10] = system: Epidermal growth factor receptor (Homo sapiens), P00533 [UNDEFINED MUTATION]; details: Compound concentration 1000.0 nM
[11] = biological target: Calcium/calmodulin-dependent protein kinase kinase 2 (Homo sapiens) (UniProt Q96RR4); details: Compound concentration 1000.0 nM
[12] = system: Proto-oncogene tyrosine-protein kinase receptor Ret (Homo sapiens), P07949 [V804L]; details: Compound concentration 1000.0 nM
[13] = biological target: Serine/threonine-protein kinase WNK2 (Homo sapiens) (UniProt Q9Y3S1); details: Compound concentration 1000.0 nM
[14] = biological target: 5-hydroxytryptamine receptor 7 (Homo sapiens) (UniProt P34969); details: Compound concentration 10.0 uM
[15] = biological target: Serine/threonine-protein kinase LATS2 (Homo sapiens) (UniProt Q9NRM7); details: Compound concentration 1000.0 nM
[16] = biological target: Mitogen-activated protein kinase 7 (Homo sapiens) (UniProt Q13164); details: Compound concentration 1000.0 nM
[17] = biological target: Dual specificity tyrosine-phosphorylation-regulated kinase 1B (Homo sapiens) (UniProt Q9Y463); details: Compound concentration 1000.0 nM
[18] = biological target: Insulin-like growth factor 1 receptor (Homo sapiens) (UniProt P08069); details: Compound concentration 1000.0 nM
[19] = biological target: Receptor tyrosine-protein kinase erbB-2 (Homo sapiens) (UniProt P04626); details: Compound concentration 1000.0 nM
Receptor tyrosine-protein kinase erbB-2 (Homo sapiens), sequence (P04626 whole entry): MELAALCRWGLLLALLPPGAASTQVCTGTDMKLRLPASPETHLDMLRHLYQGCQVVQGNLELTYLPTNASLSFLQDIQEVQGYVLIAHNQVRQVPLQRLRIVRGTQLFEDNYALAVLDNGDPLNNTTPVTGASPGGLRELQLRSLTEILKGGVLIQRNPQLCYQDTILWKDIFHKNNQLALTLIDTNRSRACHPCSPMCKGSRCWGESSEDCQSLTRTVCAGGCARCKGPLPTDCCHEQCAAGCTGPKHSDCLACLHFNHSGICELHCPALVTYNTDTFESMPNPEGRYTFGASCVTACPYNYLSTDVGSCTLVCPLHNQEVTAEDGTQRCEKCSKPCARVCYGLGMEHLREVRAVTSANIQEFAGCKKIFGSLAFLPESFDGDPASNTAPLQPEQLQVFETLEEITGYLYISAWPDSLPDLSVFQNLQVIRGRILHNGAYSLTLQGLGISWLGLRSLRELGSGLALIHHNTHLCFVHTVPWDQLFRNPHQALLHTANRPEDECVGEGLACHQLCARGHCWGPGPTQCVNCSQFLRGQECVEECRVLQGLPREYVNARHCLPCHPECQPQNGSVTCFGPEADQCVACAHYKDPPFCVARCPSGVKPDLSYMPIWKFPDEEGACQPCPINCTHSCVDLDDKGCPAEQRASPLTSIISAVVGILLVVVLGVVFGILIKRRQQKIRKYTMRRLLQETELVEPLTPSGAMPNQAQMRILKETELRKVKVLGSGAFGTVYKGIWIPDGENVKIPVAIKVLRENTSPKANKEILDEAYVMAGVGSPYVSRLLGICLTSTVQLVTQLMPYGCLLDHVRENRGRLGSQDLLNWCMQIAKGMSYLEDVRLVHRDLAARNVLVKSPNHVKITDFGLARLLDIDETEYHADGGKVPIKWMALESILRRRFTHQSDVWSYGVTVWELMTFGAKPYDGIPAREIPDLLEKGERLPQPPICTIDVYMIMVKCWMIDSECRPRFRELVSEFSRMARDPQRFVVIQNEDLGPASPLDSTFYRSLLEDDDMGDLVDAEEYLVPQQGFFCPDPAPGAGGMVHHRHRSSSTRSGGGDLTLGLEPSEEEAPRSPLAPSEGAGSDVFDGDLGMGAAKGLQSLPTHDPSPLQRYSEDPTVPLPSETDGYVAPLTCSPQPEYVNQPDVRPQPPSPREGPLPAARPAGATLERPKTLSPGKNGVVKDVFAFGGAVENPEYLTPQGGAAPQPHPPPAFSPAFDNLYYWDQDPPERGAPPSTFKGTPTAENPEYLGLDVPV

[20] = biological target: Tyrosine-protein kinase receptor TYRO3 (Homo sapiens) (UniProt Q06418); details: Compound concentration 1000.0 nM
[21] = biological target: Cyclin-dependent kinase 2 homolog (Plasmodium falciparum (isolate 3D7)) (UniProt P61075); details: Compound concentration 1000.0 nM
[22] = biological target: Mitogen-activated protein kinase kinase kinase 15 (Homo sapiens) (UniProt Q6ZN16); details: Compound concentration 1000.0 nM
[23] = biological target: Serine/threonine-protein kinase TAO1 (Homo sapiens) (UniProt Q7L7X3); details: Compound concentration 1000.0 nM
[24] = biological target: Casein kinase I isoform gamma-2 (Homo sapiens) (UniProt P78368); details: Compound concentration 1000.0 nM
[25] = biological target: Mitogen-activated protein kinase kinase kinase kinase 1 (Homo sapiens) (UniProt Q92918); details: Compound concentration 1000.0 nM
[26] = biological target: Mitogen-activated protein kinase kinase kinase kinase 2 (Homo sapiens) (UniProt Q12851); details: Compound concentration 1000.0 nM
[27] = biological target: Serine/threonine-protein kinase TNNI3K (Homo sapiens) (UniProt Q59H18); details: Compound concentration 1000.0 nM
[28] = biological target: Serine/threonine-protein kinase PLK3 (Homo sapiens) (UniProt Q9H4B4); details: Compound concentration 1000.0 nM
[29] = biological target: Leucine-rich repeat serine/threonine-protein kinase 2 (Homo sapiens) (UniProt Q5S007); details: Compound concentration 1000.0 nM
Leucine-rich repeat serine/threonine-protein kinase 2 (Homo sapiens), sequence (Q5S007 whole entry): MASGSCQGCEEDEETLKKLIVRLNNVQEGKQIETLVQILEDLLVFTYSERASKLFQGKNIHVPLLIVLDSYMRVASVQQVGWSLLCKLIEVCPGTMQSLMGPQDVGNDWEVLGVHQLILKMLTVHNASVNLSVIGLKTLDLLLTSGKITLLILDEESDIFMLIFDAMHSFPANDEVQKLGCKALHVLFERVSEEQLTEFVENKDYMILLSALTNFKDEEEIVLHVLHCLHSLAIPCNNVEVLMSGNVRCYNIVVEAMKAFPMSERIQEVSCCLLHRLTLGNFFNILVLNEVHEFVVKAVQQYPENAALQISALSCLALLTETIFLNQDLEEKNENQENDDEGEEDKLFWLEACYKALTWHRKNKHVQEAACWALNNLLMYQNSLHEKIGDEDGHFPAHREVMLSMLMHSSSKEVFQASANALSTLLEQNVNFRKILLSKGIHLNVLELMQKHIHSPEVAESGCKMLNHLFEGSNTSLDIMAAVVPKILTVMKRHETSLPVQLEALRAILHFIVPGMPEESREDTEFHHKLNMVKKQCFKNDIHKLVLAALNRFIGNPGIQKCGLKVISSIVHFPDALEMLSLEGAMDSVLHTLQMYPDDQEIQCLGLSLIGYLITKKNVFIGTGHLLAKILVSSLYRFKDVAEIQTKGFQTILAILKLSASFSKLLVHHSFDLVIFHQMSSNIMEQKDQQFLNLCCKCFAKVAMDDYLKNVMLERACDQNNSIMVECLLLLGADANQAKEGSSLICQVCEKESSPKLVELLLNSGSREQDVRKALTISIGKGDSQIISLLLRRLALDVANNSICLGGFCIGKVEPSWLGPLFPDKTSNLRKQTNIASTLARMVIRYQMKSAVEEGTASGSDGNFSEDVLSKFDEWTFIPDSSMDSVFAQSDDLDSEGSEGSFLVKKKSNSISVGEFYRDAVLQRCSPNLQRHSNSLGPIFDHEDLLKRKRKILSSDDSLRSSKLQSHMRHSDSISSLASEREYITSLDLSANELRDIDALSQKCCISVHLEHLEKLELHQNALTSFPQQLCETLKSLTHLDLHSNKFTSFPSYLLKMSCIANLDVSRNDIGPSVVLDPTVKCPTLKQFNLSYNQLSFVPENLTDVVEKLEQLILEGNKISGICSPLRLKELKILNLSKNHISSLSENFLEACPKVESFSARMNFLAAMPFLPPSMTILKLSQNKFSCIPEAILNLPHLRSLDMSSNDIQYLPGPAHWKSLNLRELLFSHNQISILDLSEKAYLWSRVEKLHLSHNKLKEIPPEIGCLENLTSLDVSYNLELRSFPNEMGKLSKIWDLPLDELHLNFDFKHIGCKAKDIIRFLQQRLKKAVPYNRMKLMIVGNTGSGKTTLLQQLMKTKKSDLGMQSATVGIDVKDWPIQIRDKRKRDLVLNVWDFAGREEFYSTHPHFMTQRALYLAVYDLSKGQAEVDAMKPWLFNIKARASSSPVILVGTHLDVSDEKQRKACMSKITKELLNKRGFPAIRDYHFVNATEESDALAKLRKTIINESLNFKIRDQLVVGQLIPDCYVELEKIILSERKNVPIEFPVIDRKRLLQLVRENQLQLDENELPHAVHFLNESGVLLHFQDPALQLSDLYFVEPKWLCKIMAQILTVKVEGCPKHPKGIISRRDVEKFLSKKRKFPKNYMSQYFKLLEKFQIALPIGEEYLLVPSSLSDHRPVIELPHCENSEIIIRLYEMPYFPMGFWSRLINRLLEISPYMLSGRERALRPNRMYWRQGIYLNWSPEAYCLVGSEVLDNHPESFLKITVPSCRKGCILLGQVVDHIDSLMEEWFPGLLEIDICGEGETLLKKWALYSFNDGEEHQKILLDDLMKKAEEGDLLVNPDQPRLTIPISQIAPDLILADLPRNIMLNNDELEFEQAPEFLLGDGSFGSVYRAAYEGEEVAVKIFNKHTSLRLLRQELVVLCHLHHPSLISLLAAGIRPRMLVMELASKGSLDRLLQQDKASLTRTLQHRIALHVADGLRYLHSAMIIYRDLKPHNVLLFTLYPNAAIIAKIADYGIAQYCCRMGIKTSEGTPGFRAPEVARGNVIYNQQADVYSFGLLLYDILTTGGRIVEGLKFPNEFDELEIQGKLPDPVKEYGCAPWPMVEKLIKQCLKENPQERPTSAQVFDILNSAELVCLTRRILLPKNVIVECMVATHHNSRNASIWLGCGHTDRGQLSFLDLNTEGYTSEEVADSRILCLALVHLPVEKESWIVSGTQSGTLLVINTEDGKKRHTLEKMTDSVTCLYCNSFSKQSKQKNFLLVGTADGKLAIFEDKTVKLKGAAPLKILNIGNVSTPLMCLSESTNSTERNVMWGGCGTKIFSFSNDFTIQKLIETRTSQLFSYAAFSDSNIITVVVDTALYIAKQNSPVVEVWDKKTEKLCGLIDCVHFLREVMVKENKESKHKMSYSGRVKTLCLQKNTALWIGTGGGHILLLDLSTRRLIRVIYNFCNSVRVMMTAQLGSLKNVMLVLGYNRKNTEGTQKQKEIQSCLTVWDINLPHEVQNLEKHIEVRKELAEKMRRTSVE

[30] = biological target: Tyrosine-protein kinase JAK1 (Homo sapiens) (UniProt P23458); details: Compound concentration 1000.0 nM
[31] = biological target: Activin receptor type-1 (Homo sapiens) (UniProt Q04771); details: Compound concentration 1000.0 nM
[32] = biological target: SRSF protein kinase 1 (Homo sapiens) (UniProt Q96SB4); details: Compound concentration 1000.0 nM
[33] = biological target: Tyrosine-protein kinase Fes/Fps (Homo sapiens) (UniProt P07332); details: Compound concentration 1000.0 nM
[34] = biological target: Serine/threonine-protein kinase MAK (Homo sapiens) (UniProt P20794); details: Compound concentration 1000.0 nM
[35] = biological target: Serine/threonine-protein kinase ULK3 (Homo sapiens) (UniProt Q6PHR2); details: Compound concentration 1000.0 nM
[36] = biological target: Tyrosine-protein kinase Fyn (Homo sapiens) (UniProt P06241); details: Compound concentration 1000.0 nM
[37] = biological target: Mitogen-activated protein kinase 12 (Homo sapiens) (UniProt P53778); details: Compound concentration 1000.0 nM
[38] = biological target: Proto-oncogene tyrosine-protein kinase Src (Homo sapiens) (UniProt P12931); details: Compound concentration 1000.0 nM
[39] = biological target: Casein kinase II subunit alpha (Homo sapiens) (UniProt P68400); details: Compound concentration 1000.0 nM
[40] = biological target: Serine/threonine-protein kinase 35 (Homo sapiens) (UniProt Q8TDR2); details: Compound concentration 1000.0 nM
[41] = biological target: 3-phosphoinositide-dependent protein kinase 1 (Homo sapiens) (UniProt O15530); details: Compound concentration 1000.0 nM
[42] = system: Phosphatidylinositol 4,5-bisphosphate 3-kinase catalytic subunit alpha isoform (Homo sapiens), P42336 [H1047L]; details: Compound concentration 1000.0 nM
Phosphatidylinositol 4,5-bisphosphate 3-kinase catalytic subunit alpha isoform (Homo sapiens), P42336 [H1047L], sequence (P42336 whole entry H1047L, canonical isoform): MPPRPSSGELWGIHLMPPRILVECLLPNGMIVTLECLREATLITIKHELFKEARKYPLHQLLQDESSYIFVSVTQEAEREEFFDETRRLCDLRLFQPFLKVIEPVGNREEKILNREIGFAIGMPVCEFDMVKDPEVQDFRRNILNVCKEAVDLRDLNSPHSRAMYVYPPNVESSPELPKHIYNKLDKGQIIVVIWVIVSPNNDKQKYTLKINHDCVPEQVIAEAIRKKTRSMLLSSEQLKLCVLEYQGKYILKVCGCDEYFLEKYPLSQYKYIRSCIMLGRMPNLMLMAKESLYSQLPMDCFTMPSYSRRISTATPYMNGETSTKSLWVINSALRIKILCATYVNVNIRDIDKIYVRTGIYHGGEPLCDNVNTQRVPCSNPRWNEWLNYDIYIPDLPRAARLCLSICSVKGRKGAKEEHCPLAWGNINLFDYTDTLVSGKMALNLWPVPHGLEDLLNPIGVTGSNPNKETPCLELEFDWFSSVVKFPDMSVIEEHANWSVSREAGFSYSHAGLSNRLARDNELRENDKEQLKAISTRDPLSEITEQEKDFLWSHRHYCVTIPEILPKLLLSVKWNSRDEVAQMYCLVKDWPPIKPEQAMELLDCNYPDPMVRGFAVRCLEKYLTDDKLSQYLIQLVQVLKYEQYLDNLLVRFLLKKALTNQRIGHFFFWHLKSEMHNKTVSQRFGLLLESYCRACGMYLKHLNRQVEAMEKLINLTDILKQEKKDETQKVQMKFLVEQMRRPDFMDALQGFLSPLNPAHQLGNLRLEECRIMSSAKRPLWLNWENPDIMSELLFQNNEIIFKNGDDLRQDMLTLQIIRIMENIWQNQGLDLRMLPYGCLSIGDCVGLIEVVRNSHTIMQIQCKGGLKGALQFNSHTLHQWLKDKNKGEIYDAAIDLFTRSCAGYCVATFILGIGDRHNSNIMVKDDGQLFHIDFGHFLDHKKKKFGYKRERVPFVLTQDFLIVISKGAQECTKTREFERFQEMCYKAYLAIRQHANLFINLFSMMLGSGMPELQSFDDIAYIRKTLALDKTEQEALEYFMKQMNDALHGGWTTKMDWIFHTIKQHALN

[43] = biological target: Mu-type opioid receptor (Homo sapiens) (UniProt P35372); details: Compound concentration 10.0 uM
[44] = biological target: Dual specificity protein kinase CLK1 (Homo sapiens) (UniProt P49759); details: Compound concentration 1000.0 nM
[45] = biological target: Ephrin type-A receptor 5 (Homo sapiens) (UniProt P54756); details: Compound concentration 1000.0 nM

N#Cc1ccc(Nc2ccc3[nH]c(=O)[nH]c3c2)c(Cl)c1
inactive: residual activity [1] 90% | residual activity [2] 100% | residual activity [3] 82% | residual activity [4] 94% | residual activity [5] 100% | residual activity [6] 100% | residual activity [7] 100% | residual activity [8] 86% | residual activity [9] 100% | residual activity [10] 100% | residual activity [11] 91% | residual activity [12] 100% | residual activity [13] 100% | inhibition [14] 8.12% | residual activity [15] 95% | residual activity [16] 100% | residual activity [17] 83% | residual activity [18] 99% | residual activity [19] 100% | residual activity [20] 62% | residual activity [21] 100% | residual activity [22] 68% | residual activity [23] 97% | residual activity [24] 100% | residual activity [25] 100% | residual activity [26] 100% | residual activity [27] 65% | residual activity [28] 84% | residual activity [29] 96% | residual activity [30] 100% | residual activity [31] 89% | residual activity [32] 95% | residual activity [33] 100% | residual activity [34] 100% | residual activity [35] 100% | residual activity [36] 89% | residual activity [37] 100% | residual activity [38] 92% | residual activity [39] 80% | residual activity [40] 100% | residual activity [41] 97% | residual activity [42] 78% | inhibition [43] 0.37% | residual activity [44] 100% | residual activity [45] 100%

O=C1CCc2cc(Nc3cc(OC4CCOCC4)c([N+](=O)[O-])cc3Cl)ccc2N1
inactive: residual activity [1] 91% | residual activity [2] 95% | residual activity [3] 83% | residual activity [4] 95% | residual activity [5] 97% | residual activity [6] 80% | residual activity [7] 100% | residual activity [8] 78% | residual activity [9] 100% | residual activity [10] 100% | residual activity [11] 100% | residual activity [12] 91% | residual activity [13] 100% | inhibition [14] 12.3% | residual activity [15] 80% | residual activity [16] 100% | residual activity [17] 74% | residual activity [18] 86% | residual activity [19] 100% | residual activity [20] 100% | residual activity [21] 100% | residual activity [22] 78% | residual activity [23] 81% | residual activity [24] 88% | residual activity [25] 100% | residual activity [26] 95% | residual activity [27] 60% | residual activity [28] 88% | residual activity [29] 72% | residual activity [30] 94% | residual activity [31] 100% | residual activity [32] 73% | residual activity [33] 100% | residual activity [34] 100% | residual activity [35] 100% | residual activity [36] 64% | residual activity [37] 100% | residual activity [38] 100% | residual activity [39] 84% | residual activity [40] 100% | residual activity [41] 100% | residual activity [42] 78% | inhibition [43] 1.31% | residual activity [44] 84% | residual activity [45] 93%
